Source: article PMC11040670, “Mechanistic and Kinetic Insights into Cellular Uptake of Biomimetic Dinitrosyl Iron Complexes and Intracellular Delivery of NO for Activation of Cytoprotective HO-1” (JACS Au, 2024)
Marks after values point to notes of the source that are not given here.

Experiments:
[1] = system: HCEC; experiment: Whole-cell EPR: cellular uptake and intracellular formation/decomposition of mononuclear DNIC in HCEC; assay type: cell-based, human; conditions: for tmax for cellular uptake and intracellular transformation (whole-cell EPR): normoxia, 75 μM DNIC–COOH or 1 μM DNIC–COOMe
Method: Cellular uptake of DNIC–COOH and intracellular formation/decomposition of mononuclear DNICs in MSC/N2a/HCEC cells were investigated using EPR spectroscopy. Briefly, cells were seeded into two (or one) 100 mm dish(es) at a density of 2 × 10^6 cells/dish and incubated at 37 °C overnight. On the next day, cells were treated with 100 μM of DNIC–COOH (or 100 μM of DNIC–COOH to N2a and 75 μM of DNIC–COOH to HCEC) and incubated for 0, 0.5, 1, 2, 3, 4, 8, and 24 h, respectively. After removal of the supernatant solution, cells were washed with DPBS before addition of 1 mL of trypsin (0.05%)/EDTA (0.53 mM) and incubation for 5 min at 37 °C. After the obtained cell suspension solutions from two 100 mm dishes were combined and centrifuged at 100g for 5 min, the supernatant was removed before addition of 100 μL of αMEM to DNIC-treated MSC (or MEM to DNIC-treated N2a and HSFM to DNIC-treated HCEC). This solution was then transferred into EPR quartz tube and frozen in N2(l) before the EPR measurements. For each measured EPR spectrum, double integration was executed to obtain the integrated EPR intensity under each condition. Moreover, time-dependent decay of integrated EPR signal intensity after treatment of DNIC–COOH was fit to pseudo-first-order kinetics in order to determine the intracellular half-life for EPR-active mononuclear DNIC. Three independent experiments were executed to measure the average half-life for intracellular decomposition of EPR-active mononuclear DNIC after treatment with DNIC–COOH at 37 °C. On the other hand, at the time point with maximum integrated EPR signal intensity, spin quantitation of intracellular EPR-active DNICs was performed using mononuclear DNIC [PPN][(NO)2Fe(S5)] as a standard according to the methodology used in the previous work.[50] Cellular uptake of DNIC–COOMe (2.5 μM to MSC, 10 μM to N2a, or 1 μM to HCEC) and intracellular formation/decomposition of EPR-active mononuclear DNICs were investigated using EPR spectroscopy in a similar manner.
Studies of cellular uptake mechanisms were investigated using EPR spectroscopy in combination with pretreatments of alternative inhibitors. After the MSC cells were seeded into two (or one) 100 mm dish(es) at a density of 2 × 10^6 cells/dish and incubated at 37 °C overnight, sequential treatments of 50 μM of NEM for 0.5 h and 100 μM of DNIC–COOH for 2 h were performed before the treated MSC cells were collected for EPR measurement following the procedure described above. […]

[2] = NO-release reactivity of DNICs (total nitrate/nitrite assay); assay type: physicochemical; conditions: dinuclear DNIC 25 μM, phosphate buffer (pH 7.4), no additive, normoxia, 37 °C
Method: The NO-release reactivity of DNICs in 50 mM potassium phosphate buffer (pH 7.4) under normoxia condition at 37 °C was investigated using Nitrate/Nitrite Colorimetric Assay Kit (Item No. 780001, Cayman). After addition of 10 μL of 100 mM stock solution of DNIC–COOH (or DNIC–COOMe) in DMSO to 990 μL of 50 mM potassium phosphate buffer (pH 7.4), 25 μM of DNIC–COOH (or DNIC–COOMe) was prepared by the addition of 0.125 mL of this 1 mM solution of DNIC–COOH (or DNIC–COOMe) to 4.875 mL of 50 mM potassium phosphate buffer (pH 7.4). This solution was incubated at 37 °C under normoxia condition for 0, 1, 2, 4, 8, 24, 48, and 72 h, respectively. Then, 40 μL of the solution was collected to assess the release of NO using a Nitrate/Nitrite Colorimetric Assay Kit (Item No. 780001, Cayman). After each 40 μL aliquot of the aqueous solution was mixed with 40 μL of kit assay buffer, 10 μL of Enzyme Cofactor Mixture (Item No. 780012) and 10 μL of nitrate reductase mixture (Item No. 780010) were added before this mixture solution was incubated at room temperature for 1 h. […] The absorbance at 540 nm was then recorded using a microplate reader (SpectraMax iD3, Molecular Devices, San Jose, CA) with a reference wavelength of 800 nm. […]

SMILES	relative whole-cell EPR signal intensity at gav = 2.03 (control = 100%) ([1]; HCEC, native FBS replaced with 2% NEM-treated FBS) [%]	tmax for cellular uptake and intracellular transformation (whole-cell EPR) ([1]; HCEC) [h]	relative whole-cell EPR signal intensity at gav = 2.03 (control = 100%) ([1]; HCEC, pretreatment of NEM 0.5 h, then DNIC–COOMe 0.5 h, reduction) [%]	t1/2 for release of NO from DNICs [2]	relative whole-cell EPR signal intensity at gav = 2.03 (control = 100%) ([1]; MβCD-treated HCEC) [%]	relative whole-cell EPR signal intensity at gav = 2.03 (control = 100%) ([1]; genistein-treated HCEC) [%]
COC(=O)CC[SH]1[Fe]([N]=O)([N]=O)[SH](CCC(=O)OC)[Fe]1([N]=O)[N]=O (centres unmarked) [DNIC–COOMe, [(NO)2Fe(μ-SCH2CH2COOCH3)2Fe(NO)2]]	99.9 ± 15.3	0.5	35.8 ± 2.3	9.1 ± 0.6 ^e h		
O=[N][Fe]1([N]=O)[SH](CCC(=O)O)[Fe]([N]=O)([N]=O)[SH]1CCC(=O)O (centres unmarked) [DNIC–COOH, [(NO)2Fe(μ-SCH2CH2COOH)2Fe(NO)2]]		8		10.7 ± 1.4 ^e h	77.5 ± 11.1	72.1 ± 5.9
